What was measured:
[1] = target: IKZF2 (Homo sapiens, UniProt Q96SW2+Q9UKS7); assay: HEK293 HiBiT in vitro degradation of IKZF2; format: cell-based; set-up: expressed in transfected cells; settings: for Dmax: HEK293, HEK293 HiBiT; for Dmax / IKZF2 Dmax: maximum degradation at the highest concentration tested; for DC50 / IKZF2 Dmax: HEK293 HiBiT; for DC50: 18-24 hr incubation, normalized to DMSO control, read-out: IKZF2 EC50
Summary of the method: (§1)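 EC50 and Dmax come from Nano-Glo lytic luminescence after 18-24 hr compound treatment at 37° C. Reporter cells were single-copy Flp-In T-REx HEK293 pools carrying HiBiT fused to the C-terminus of IKZF1, IKZF2 or SALL4. Expression was induced overnight beforehand with […] doxycycline.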

[2] = target: T1, IKZF1 (Homo sapiens, UniProt Q13422+Q96SW2); assay: HEK293 HiBiT in vitro degradation of IKZF1; format: cell-based; settings: for Dmax: HEK293, HEK293 HiBiT; for Dmax / IKZF1 Dmax: maximum degradation at the highest concentration tested; for DC50 / IKZF1 Dmax: HEK293 HiBiT; for DC50: 18-24 hr incubation, normalized to DMSO control, read-out: IKZF1 EC50
T1 construct: expressed in transfected cells
T1 sequence (Q13422 whole entry): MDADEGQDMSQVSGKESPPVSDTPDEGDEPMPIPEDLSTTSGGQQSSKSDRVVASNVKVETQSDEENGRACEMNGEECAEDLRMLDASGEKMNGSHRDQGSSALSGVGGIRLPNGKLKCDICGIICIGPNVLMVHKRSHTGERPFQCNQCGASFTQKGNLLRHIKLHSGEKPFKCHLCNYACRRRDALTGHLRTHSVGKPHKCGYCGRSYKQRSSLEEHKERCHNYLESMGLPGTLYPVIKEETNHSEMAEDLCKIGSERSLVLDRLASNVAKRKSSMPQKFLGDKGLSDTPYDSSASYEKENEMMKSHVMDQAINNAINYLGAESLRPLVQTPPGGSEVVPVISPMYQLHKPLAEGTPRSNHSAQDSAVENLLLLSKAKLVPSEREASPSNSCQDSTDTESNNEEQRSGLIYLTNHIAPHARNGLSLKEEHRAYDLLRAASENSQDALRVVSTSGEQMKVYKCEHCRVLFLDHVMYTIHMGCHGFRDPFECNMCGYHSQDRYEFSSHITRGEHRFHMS
T1 sequence (Q96SW2 whole entry): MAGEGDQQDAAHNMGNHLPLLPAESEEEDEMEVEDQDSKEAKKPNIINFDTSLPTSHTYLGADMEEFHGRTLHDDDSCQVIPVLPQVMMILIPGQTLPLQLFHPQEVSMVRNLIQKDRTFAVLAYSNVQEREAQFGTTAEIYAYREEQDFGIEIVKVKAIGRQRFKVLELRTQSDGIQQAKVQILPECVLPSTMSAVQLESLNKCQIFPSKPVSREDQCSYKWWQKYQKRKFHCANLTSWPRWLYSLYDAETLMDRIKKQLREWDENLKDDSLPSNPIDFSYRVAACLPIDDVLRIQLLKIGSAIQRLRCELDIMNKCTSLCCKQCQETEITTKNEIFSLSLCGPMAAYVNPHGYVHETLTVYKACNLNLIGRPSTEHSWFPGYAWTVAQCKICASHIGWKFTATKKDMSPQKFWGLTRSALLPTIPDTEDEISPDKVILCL
T1 sequence (Q16531 whole entry partner): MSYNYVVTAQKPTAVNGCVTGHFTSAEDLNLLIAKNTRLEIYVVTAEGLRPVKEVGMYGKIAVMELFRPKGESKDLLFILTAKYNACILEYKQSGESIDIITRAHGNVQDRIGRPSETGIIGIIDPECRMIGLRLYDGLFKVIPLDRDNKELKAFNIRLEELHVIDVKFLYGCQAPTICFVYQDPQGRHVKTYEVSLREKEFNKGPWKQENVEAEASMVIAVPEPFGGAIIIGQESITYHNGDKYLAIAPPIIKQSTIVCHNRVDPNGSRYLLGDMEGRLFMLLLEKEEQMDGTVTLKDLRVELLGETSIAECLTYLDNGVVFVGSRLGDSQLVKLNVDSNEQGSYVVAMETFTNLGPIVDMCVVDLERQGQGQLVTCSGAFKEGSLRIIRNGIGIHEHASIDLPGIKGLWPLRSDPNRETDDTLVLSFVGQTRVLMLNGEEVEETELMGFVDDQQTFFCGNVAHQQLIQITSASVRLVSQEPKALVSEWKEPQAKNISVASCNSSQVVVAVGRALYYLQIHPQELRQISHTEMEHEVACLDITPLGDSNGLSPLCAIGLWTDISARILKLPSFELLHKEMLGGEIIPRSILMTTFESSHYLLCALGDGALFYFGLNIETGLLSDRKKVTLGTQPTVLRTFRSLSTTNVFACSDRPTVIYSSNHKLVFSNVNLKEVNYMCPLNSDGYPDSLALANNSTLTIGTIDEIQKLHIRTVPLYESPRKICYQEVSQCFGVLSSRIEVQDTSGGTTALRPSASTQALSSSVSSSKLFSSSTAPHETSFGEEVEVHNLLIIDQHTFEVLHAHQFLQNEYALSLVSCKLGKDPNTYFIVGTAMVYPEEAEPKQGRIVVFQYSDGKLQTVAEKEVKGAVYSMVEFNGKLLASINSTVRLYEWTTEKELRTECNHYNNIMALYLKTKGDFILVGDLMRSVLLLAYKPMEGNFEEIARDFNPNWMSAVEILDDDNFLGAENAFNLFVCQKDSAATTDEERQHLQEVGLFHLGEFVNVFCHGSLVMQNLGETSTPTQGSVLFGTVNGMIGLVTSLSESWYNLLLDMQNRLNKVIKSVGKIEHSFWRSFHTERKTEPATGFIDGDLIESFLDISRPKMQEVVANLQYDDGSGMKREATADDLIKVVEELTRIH
Summary of the method: as §1

Chain of IKZF2 (Q9UKS7 1-500 isoform Q9UKS7-2): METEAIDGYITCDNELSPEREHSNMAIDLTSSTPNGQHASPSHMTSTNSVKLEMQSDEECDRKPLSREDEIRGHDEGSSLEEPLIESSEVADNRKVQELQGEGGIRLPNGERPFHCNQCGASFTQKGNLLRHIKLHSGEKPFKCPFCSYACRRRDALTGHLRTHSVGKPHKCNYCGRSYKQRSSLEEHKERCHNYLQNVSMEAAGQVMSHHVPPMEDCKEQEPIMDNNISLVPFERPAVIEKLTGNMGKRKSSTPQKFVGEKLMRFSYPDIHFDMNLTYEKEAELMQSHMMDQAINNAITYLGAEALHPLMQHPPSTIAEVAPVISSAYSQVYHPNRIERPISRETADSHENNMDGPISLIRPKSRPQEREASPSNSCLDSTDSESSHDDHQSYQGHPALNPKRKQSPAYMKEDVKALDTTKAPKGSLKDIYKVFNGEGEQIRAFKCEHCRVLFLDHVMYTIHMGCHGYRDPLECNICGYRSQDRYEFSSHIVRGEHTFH
Chain of IKZF2 (Q96SW2 whole entry, the tested form may be a part): as the sequence (Q96SW2 whole entry) above
Chain of IKZF2 (Q16531 whole entry partner, the tested form may be a part): as the sequence (Q16531 whole entry partner) above

Row | Structure (SMILES) | Dmax [1] | DC50 [1] | Dmax [2] | DC50 [2] | IKZF2 Dmax [1] | IKZF1 Dmax [2]
1 | O=C1CCC(N2Cc3cc(C[C@H]4CCCC[C@@H]4NC4CCCC[C@@H]4F)ccc3C2=O)C(=O)N1 (some centres unmarked) [Example 105] | 96% | 4 nM | 31% | 76 nM | – | –
2 | O=C1CCC(N2Cc3cc(C[C@H]4CCCC[C@@H]4NC4CCCC[C@@H]4F)ccc3C2=O)C(=O)N1 (some centres unmarked) [Example 106] | – | 10 nM | – | 79 nM | 95% | 24%
3 | O=C1CCC(N2Cc3cc(C[C@H]4CCCC[C@@H]4NC4CCCC[C@H]4F)ccc3C2=O)C(=O)N1 (some centres unmarked) [Example 107] | 96% | 3 nM | 36% | 81 nM | – | –
4 | CC(=O)N1CCC(N[C@H]2CCCC[C@@H]2Cc2ccc3c(c2)CN(C2CCC(=O)NC2=O)C3=O)CC1 (some centres unmarked) [Example 108] | 96% | 55 nM | – | > 1000 nM | – | –
5 | O=C1CCC(N2Cc3cc(C[C@H]4CCCC[C@@H]4NC4CCCCC4(F)F)ccc3C2=O)C(=O)N1 (some centres unmarked) [Example 111] | 81% | 91 nM | – | > 1000 nM | – | –
6 | O=C1CCC(N2Cc3cc(C[C@H]4CCCC[C@@H]4NC4CC5CCC(C4)O5)ccc3C2=O)C(=O)N1 (some centres unmarked) [Example 112] | 97% | 3 nM | 30% | 56 nM | – | –
7 | CN(C1CCC(F)(F)CC1)[C@H]1CCCC[C@@H]1Cc1ccc2c(c1)CN(C1CCC(=O)NC1=O)C2=O (stereo partly drawn) [Example 123, 3-(5-(((1R,2S)-2-((4,4-difluorocyclohexyl)(methyl)amino)cyclohexyl)methyl)-1-oxoisoindolin-2-yl)piperidine-2,6-dione] | 88% | 26 nM | – | > 1000 nM | – | –
8 | O=C1CCC(N2Cc3cc(C[C@H]4CCOC[C@@H]4NC4CCC(F)(F)CC4)ccc3C2=O)C(=O)N1 (some centres unmarked) [Example 126] | 80% | 114 nM | – | > 1000 nM | – | –
9 | CC(CF)N[C@H]1CCCC[C@@H]1Cc1ccc2c(c1)CN(C1CCC(=O)NC1=O)C2=O (some centres unmarked) [Example 127] | 68% | 15 nM | 72% | 15 nM | – | –
10 | CCCCN[C@H]1CCCC[C@@H]1Cc1ccc2c(c1)CN(C1CCC(=O)NC1=O)C2=O (some centres unmarked) [Example 128] | 98% | 18 nM | 19% | 94 nM | – | –
11 | CC(N[C@H]1CCCC[C@@H]1Cc1ccc2c(c1)CN(C1CCC(=O)NC1=O)C2=O)C(F)F (some centres unmarked) [Example 130] | 76% | 148 nM | – | > 1000 nM | – | –
12 | O=C1CCC(N2Cc3cc(C[C@H]4CCCC[C@@H]4NC4CCc5ccccc54)ccc3C2=O)C(=O)N1 (some centres unmarked) [Example 131] | 96% | 4 nM | 45% | 78 nM | – | –
13 | O=C1CCC(N2Cc3cc(C[C@H]4CCCC[C@@H]4NC4CC5CCC5C4)ccc3C2=O)C(=O)N1 (some centres unmarked) [Example 132] | 97% | 4 nM | 45% | 66 nM | – | –
14 | CC(C)(C#N)CCN[C@H]1CCCC[C@@H]1Cc1ccc2c(c1)CN(C1CCC(=O)NC1=O)C2=O (some centres unmarked) [Example 133] | 96% | 32 nM | 30% | 132 nM | – | –
15 | COC(C)(C)CCN[C@H]1CCCC[C@@H]1Cc1ccc2c(c1)CN(C1CCC(=O)NC1=O)C2=O (some centres unmarked) [Example 134] | 97% | 61 nM | – | > 1000 nM | – | –
16 | O=C1CCC(N2Cc3cc(C[C@H]4CCCC[C@@H]4NCCCC(F)F)ccc3C2=O)C(=O)N1 (some centres unmarked) [Example 135] | 93% | 16 nM | 24% | 77 nM | – | –
17 | O=C1CCC(N2Cc3c(ccc(C[C@H]4CCCC[C@@H]4NC4CC5CCCC5C4)c3F)C2=O)C(=O)N1 (some centres unmarked) [Example 141] | 98% | 2 nM | 53% | 58 nM | – | –
18 | O=C1CCC(N2Cc3cc(C[C@H]4CCCC[C@@H]4NC4COc5ccccc5C4)ccc3C2=O)C(=O)N1 (some centres unmarked) [Example 143] | 94% | 33 nM | – | > 1000 nM | – | –
19 | CC1(C)CC(N[C@H]2CCCC[C@@H]2Cc2ccc3c(c2)CN(C2CCC(=O)NC2=O)C3=O)CC(C)(C)C1 (some centres unmarked) [Example 144] | 97% | 7 nM | – | > 1000 nM | – | –
20 | CC(c1ccc2c(c1)CN(C1CCC(=O)NC1=O)C2=O)[C@H]1CCCC[C@@H]1NC1CCC(F)(F)CC1 (some centres unmarked) [Example 147] | 75% | 37 nM | – | > 1000 nM | – | –

Further lines, results first:

Row | Dmax [1] | DC50 [1] | Dmax [2] | DC50 [2] | IKZF2 Dmax [1] | IKZF1 Dmax [2] | Structure (SMILES)
21 | 71% | 46 nM | 36% | 45 nM | – | – | O=C1CCC(N2Cc3c(ccc(C[C@H]4OCCC[C@@H]4NCC4CCC(F)(F)CC4)c3F)C2=O)C(=O)N1 (some centres unmarked) [Example 149]
22 | 73% | 51 nM | – | > 500 nM | – | – | O=C1CCC(N2Cc3c(ccc(C[C@H]4OCCC[C@@H]4NCC4CC(F)(F)C4)c3F)C2=O)C(=O)N1 (some centres unmarked) [Example 150]
23 | 78% | 26 nM | – | > 500 nM | – | – | O=C1CCC(N2Cc3c(ccc(C[C@H]4OCCC[C@@H]4NCC4CCC4)c3F)C2=O)C(=O)N1 (some centres unmarked) [Example 152]
24 | 90% | 114 nM | – | > 500 nM | – | – | C[C@@]1(O)CC[C@H](NC2CCC(F)(F)CC2)[C@@H](Cc2ccc3c(c2)CN(C2CCC(=O)NC2=O)C3=O)C1 (some centres unmarked) [Example 154]
25 | 98% | 6 nM | – | > 1000 nM | – | – | COC1CCC(NC2CCCOC2Cc2ccc3c(c2F)CN(C2CCC(=O)NC2=O)C3=O)CC1 (centres unmarked) [Example 156]
26 | 92% | 8 nM | 35% | 61 nM | – | – | O=C1CCC(N2Cc3c(ccc(C[C@H]4OCCC[C@@H]4NC4CC5(CCC5)C4)c3F)C2=O)C(=O)N1 (some centres unmarked) [Example 157]
27 | 91% | 11 nM | 50% | 72 nM | – | – | O=C1CCC(N2Cc3c(ccc(C[C@H]4OCCC[C@@H]4NC4CC5(CCCCC5)C4)c3F)C2=O)C(=O)N1 (some centres unmarked) [Example 158]
28 | 88% | 95 nM | – | > 1000 nM | – | – | CC1(C)OCC(N[C@H]2CCCC[C@@H]2Cc2ccc3c(c2)CN(C2CCC(=O)NC2=O)C3=O)CO1 (some centres unmarked) [Example 161]
29 | 93% | 58 nM | 42% | 226 nM | – | – | O=C1CCC(N2Cc3cc(C[C@H]4C[C@@H](O)CC[C@@H]4NC4CCC(F)(F)CC4)ccc3C2=O)C(=O)N1 (some centres unmarked) [Example 162]
30 | 95% | 14 nM | 45% | 328 nM | – | – | O=C1CCC(N2Cc3cc(C[C@H]4CCC[C@H](O)[C@@H]4NC4CCC(F)(F)CC4)ccc3C2=O)C(=O)N1 (some centres unmarked) [Example 163]
31 | 83% | 17 nM | – | > 1000 nM | – | – | CO[C@@H]1CCC[C@H](Cc2ccc3c(c2)CN(C2CCC(=O)NC2=O)C3=O)[C@H]1NC1CCC(F)(F)CC1 (some centres unmarked) [Example 164]
32 | 98% | 20 nM | 28% | 270 nM | – | – | O=C1CCC(N2Cc3cc(C[C@H]4CCCC[C@@H]4NC4CCc5cn[nH]c5C4)ccc3C2=O)C(=O)N1 (some centres unmarked) [Example 165]
33 | 96% | 23 nM | – | > 1000 nM | – | – | CCCC(CCC)N[C@H]1CCCC[C@@H]1Cc1ccc2c(c1)CN(C1CCC(=O)NC1=O)C2=O (some centres unmarked) [Example 166]
34 | 98% | 26 nM | 37% | 198 nM | – | – | O=C1CCC(N2Cc3cc(C[C@H]4CCCC[C@@H]4NC4CCC5(CCO5)CC4)ccc3C2=O)C(=O)N1 (some centres unmarked) [Example 171]
35 | – | 19 nM | – | 203 nM | 98% | 28% | O=C1CCC(N2Cc3cc(C[C@H]4CCCC[C@@H]4NC4CCC5(CCO5)CC4)ccc3C2=O)C(=O)N1 (some centres unmarked) [Example 172]
36 | 86% | 67 nM | – | > 1000 nM | – | – | O=C1CCC(N2Cc3cc(C[C@H]4CCCC[C@@H]4NCC45CC(c6ccccc6)(C4)C5(F)F)ccc3C2=O)C(=O)N1 (some centres unmarked) [Example 174]
37 | 96% | 24 nM | 46% | 189 nM | – | – | O=C1CCC(N2Cc3cc(C[C@H]4CCCC[C@@H]4NC4CCOc5ccccc54)ccc3C2=O)C(=O)N1 (some centres unmarked) [Example 175]
38 | 96% | 3 nM | – | > 1000 nM | – | – | CCC(C)N[C@H]1CCCC[C@@H]1Cc1ccc2c(c1)CN(C1CCC(=O)NC1=O)C2=O (some centres unmarked) [Example 176]
39 | 97% | 4 nM | 42% | 78 nM | – | – | O=C1CCC(N2Cc3cc(C[C@H]4CCCC[C@@H]4NC4Cc5ccccc5C4)ccc3C2=O)C(=O)N1 (some centres unmarked) [Example 177]
40 | 72% | 168 nM | – | > 1000 nM | – | – | O=C1CCC(N2Cc3cc(C[C@H]4CCC[C@@H]4NC4CCC(F)(F)CC4)ccc3C2=O)C(=O)N1 (some centres unmarked) [Example 178]
41 | – | 16 nM | – | > 10000 nM | 88% | – | O=C1CCC(N2Cc3cc(C[C@H]4OCCC[C@@H]4NC4CCCCC4)ccc3C2=O)C(=O)N1 (some centres unmarked) [Example 179]
42 | 85% | 39 nM | – | > 1000 nM | – | – | CC(C)N[C@H]1CCCO[C@@H]1Cc1ccc2c(c1)CN(C1CCC(=O)NC1=O)C2=O (some centres unmarked) [Example 180]
43 | 94% | 9 nM | 34% | 43 nM | – | – | CC(C)(CCN[C@H]1CCCC[C@@H]1Cc1ccc2c(c1)CN(C1CCC(=O)NC1=O)C2=O)C(F)(F)F (some centres unmarked) [Example 182]
44 | – | 91 nM | – | > 1000 nM | 81% | – | O=C1CCC(N2Cc3cc(C[C@H]4CCCC[C@@H]4NC4CCCCC4(F)F)ccc3C2=O)C(=O)N1 (some centres unmarked) [Example 183]
45 | – | 3 nM | – | 56 nM | 97% | 30% | O=C1CCC(N2Cc3cc(C[C@H]4CCCC[C@@H]4NC4CC5CCC(C4)O5)ccc3C2=O)C(=O)N1 (some centres unmarked) [Example 184]

Source: patent US11897862B2 (Gilead Sciences, Inc., priority 2022, dated 2024)
